Key:
[1] = Karl Fisher analysis (water content), hygroscopic stability; type: physicochemical; conditions: exposed to the air for 18 hours; for KF (% H2O) t = 18 h: kept at room temperature
Experimental: Water content analysis were carried out with a Metrohm's KF Coulometer, using Metrohm glass vials (volume 10 mL) with elastometric tight closure, with about 10÷40 mg of sample. The samples were analyzed at 140° C.
The reference was an empty vial of the same kind. Sodium Tartrate diHydrate (theoretical amount is 15.66%) was used to assess the calibration of the apparatus with regard to the humidity.
Then these compounds were kept at room temperature under the same conditions, exposed to the air for 18 hours.

[2] = biological target: T1, L-CPT I (liver CPT isoform I) (Homo sapiens, UniProt P50416); conditions: in vitro; cited from earlier work
T1 sequence (P50416 1-773): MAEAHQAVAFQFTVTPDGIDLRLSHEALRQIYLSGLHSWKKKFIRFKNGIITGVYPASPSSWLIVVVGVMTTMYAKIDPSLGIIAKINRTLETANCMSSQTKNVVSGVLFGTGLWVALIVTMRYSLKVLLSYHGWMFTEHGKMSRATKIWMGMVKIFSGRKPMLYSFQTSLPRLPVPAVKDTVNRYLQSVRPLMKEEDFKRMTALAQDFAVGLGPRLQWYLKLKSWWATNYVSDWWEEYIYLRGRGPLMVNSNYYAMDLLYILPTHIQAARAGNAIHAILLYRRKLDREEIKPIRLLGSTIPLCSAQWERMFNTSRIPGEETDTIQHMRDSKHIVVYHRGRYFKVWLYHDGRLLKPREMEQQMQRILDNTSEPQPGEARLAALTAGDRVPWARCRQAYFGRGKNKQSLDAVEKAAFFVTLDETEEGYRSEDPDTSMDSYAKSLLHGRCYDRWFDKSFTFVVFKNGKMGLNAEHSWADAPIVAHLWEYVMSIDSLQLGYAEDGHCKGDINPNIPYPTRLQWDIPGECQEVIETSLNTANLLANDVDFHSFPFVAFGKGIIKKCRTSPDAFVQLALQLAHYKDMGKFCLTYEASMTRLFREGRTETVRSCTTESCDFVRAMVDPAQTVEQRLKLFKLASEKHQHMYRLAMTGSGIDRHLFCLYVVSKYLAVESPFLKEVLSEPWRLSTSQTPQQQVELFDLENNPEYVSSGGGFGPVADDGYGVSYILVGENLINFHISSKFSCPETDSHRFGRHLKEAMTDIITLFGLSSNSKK

ketogenesis = conditions: in vivo, fasted rats; cited from earlier work
serum glucose levels = conditions: diabetic mouse model; cited from earlier work

Row | Compound | KF (% H2O) t = 18 h [1] | change of H2O content after exposure to air ([1]; room temperature, repeated KF analysis) | selectivity of inhibition of L-CPT I with respect to M-CPT I [2] | effect on ketogenesis (ketogenesis) | change in heart weight and triglycerides content (serum glucose levels) | effect on serum glucose levels (serum glucose levels)
1 | CCCCCCCCCCCCCCNC(=O)N[C@H](CC(=O)[O-])C[N+](C)(C)C [Comparative Example 2, R-4-trimethylammonium-3-(tetradecylcarbamoyl)-amino butyrate] | 15.2% | large increase of H2O content |  |  |  | 
2 | CCCCCCCCCCCCCCNC(=O)N[C@H](CC(=O)[O-])C[N+](C)(C)C [Example 1, R-4-trimethylammonium-3-(tetradecylcarbamoyl)-amino butyrate] | 5.8% |  |  |  |  | 
3 | CCCCCCCCCCCCCCNC(=O)N[C@H](CC(=O)[O-])C[N+](C)(C)C [teglicar, R-4-trimethylammonium-3-(tetradecylcarbamoyl)-amino butyrate] |  |  | selectively inhibit | depress ketogenesis | without any significant change | good reduction of serum glucose levels

Source: US8598384B2, “Crystalline teglicar” (Sigma-Tau Industrie Farmaceutiche Riunite S.p.A., priority 2007, dated 2013)
